Each block holds one molecule with its values, some of them ahead of it.
Key:
HIF-1α = assay type: cell-based
M14 melanoma cells = assay: Cell viability (CCK8 assay) in M14 melanoma cells; assay type: cell-based; conditions: Homo sapiens, confluent M14 cells, 48 h incubation
Procedure: M14 melanoma cells were seeded at 50,000 cells per well of 96-well plate in 100 μl of Dulbecco's […] (DMEM) supplemented with 10% fetal bovine serum. Cells were cultured at 37° C. under 5% CO2-95% air. After 16 hours of incubation, the test compound was added to the cell culture. The compound was first diluted in 100% dimethyl sulfoxide (DMSO) at 400-fold of the final concentrations actually used in the assay. The DMSO solution was next diluted 20 fold with the culture medium, and then finally added to the assay wells at another 20-fold dilution. Assay medium included the test compound with concentrations as indicated with 0.25% DMSO. Cell viability was measured with a CCK8 assay (as described in the Technical Manual for Cell Counting Kit-8, Product #CK04-11, CK04-13 and CK04-20, Dojindo Molecular Technologies, Inc. MD; Tantular, I. S. et al. Tropical Medicine and International Health, 8(6), 569-574, 2003) in the last 15 minutes after a 48 h incubation with the test compound. Each bar of the figure expresses average percent inhibition against vehicle (0.25% DMSO) control (n=4). Error bars indicate standard deviation.

metastatic melanoma = assay: Phase 3 trial in metastatic melanoma, stratified by baseline LDH; assay type: in vivo, patients; conditions: for median PFS: elesclomol arm
From the text: In a Phase 3 trial in metastatic melanoma, the level of baseline lactate dehydrogenase (LDH) in patients emerged as an important prognostic factor for treatment outcomes with elesclomol. A differential response to treatment with elesclomol was shown, based on the level of baseline LDH in the plasma, an established prognostic biomarker in melanoma and a pre-specified stratification variable in the trial.

769-P = assay: Cell viability (CellTiter Glo ATP) with elesclomol under normoxia/hypoxia, 769-P; assay type: cell-based; conditions: 769-P cell line, which did not elevate LDH-A activity under hypoxic conditions
Procedure: FIG. 7 illustrates experimental work done with a variety of cells showing how high levels of HIF-1α and LDH-A activity correlate with the reduced sensitivity to elesclomol. FIGS. 7a and 7b show the reductive (i.e., pyruvate to lactate) LDH activity and HIF-1α level under normoxic and hypoxic conditions. The cells set forth in the Figures and in Table 1, below were seeded at 2 k cells/well in a 96-well plate and cultured under normoxic (20% O2) and hypoxic (0.1% O2) conditions to determine their LDH activity and HIF-1α level. LDH-A activity (measuring reduction of pyruvate to lactate by monitoring NADH at 340 nm) and HIF-1α were analyzed at 24 h. […] An experiment was then run to treat these same cell lines with vehicle or 50 nM elesclomol under normoxic (20% O2) and hypoxia (0.1% O2) conditions for 36 h (FIG. 7d.) Cell viability was evaluated by cellular ATP (CellTiter Glo, Promega).

Caki-2 cells = assay: Cell viability by CellTiter Glo ATP assay at 24 h, Caki-2 cells (FIG. 6b); assay type: cell-based; conditions: HIF-1α-high Caki-2 cells, 2,500 cells/well
Procedure: (§1) To further investigate a correlation between HIF-1α and elesclomol potency, lines within the same cancer phenotype but showing distinct levels of HIF1α were evaluated. Caki-1 and -2 are renal cancer cell lines established from the same patient; Caki-2 cells constitutively express HIF-1α while the expression in Caki-1 cells is conditional. VHL protein is a negative regulator of HIF-1α, and a VHL mutation accompanies constitutive HIF-1α expression. In FIG. 6a, cells were serially diluted to the densities indicated. Cell lysates were harvested for ELISA at 24 h after seeding. In FIG. 6b, cells were seeded at 2,500 cells/well-96 plate. Cell viability was evaluated by CellTiter Glo ATP assay at 24 h.

Caki-1 cells = assay: Cell viability by CellTiter Glo ATP assay at 24 h, Caki-1 cells (FIG. 6b); assay type: cell-based; conditions: HIF-1α-low Caki-1 cells, 2,500 cells/well
Procedure: as §1

CoCl2-treated M14 cells = assay: Cell viability of CoCl2-treated M14 cells with elesclomol and oxamate (FIG. 10, 11); assay type: cell-based; conditions: 50 nM elesclomol, 50 μM CoCl2, 25 mM oxamate, 48 h
Procedure: By inhibiting LDH, the conversion of pyruvate to lactate is shut down, as illustrated in the left panel of FIG. 10. Oxamate, a pyruvate analog and LDH-A inhibitor, was tested on CoCl2-treated M14 cells as illustrated in the right panel of FIG. 10. Cell viability was assessed after 48 h incubation with or without elesclomol and oxamate.
Cell viability was assessed after 48 h incubation with or without 50 nM elesclomol in the presence or absence of 50 μM CoCl2 and 25 mM oxamate.

[1] = tested on: M14 (MDA-MB-435) melanoma cells; assay: Cell viability of sparse and dense M14 (MDA-MB-435) melanoma cells under normoxia or hypoxia (FIG. 5b); assay type: cell-based; conditions: normoxia (20%) or hypoxia (0.1%), viability at 48 h by cellular ATP
Procedure: In hypoxic cells, stabilized HIF-1α shunts away energy carbon flow from mitochondria (illustrated graphically in FIG. 4.). The regulatory subunit of HIF-1α is stabilized under hypoxic conditions, and thus-stabilized HIF-1α forms active HIF-1 (HIF-1α/1b heterodimer), whereupon HIF-1 induces LDH-A to convert pyruvate to lactate. The potency of the bis[thiohydrazide amide] compound elesclomol on sparse and dense melanoma cells was assayed under hypoxic and normoxic conditions. Total HIF-1α (cytosolic+nuclear, FIG. 5a) and cell viability of M14 (MDA-MB-435) melanoma cells (FIG. 5b) was evaluated at 12 h and 48 h by ELISA (R&D systems) and cellular ATP levels (CellTiter Glo-Promega), respectively, under normoxia (20%) or hypoxia (0.1%) with sparse (2 k cells/well) or dense (20 k cells/well) in 96-well plates.

SMILES: [Cl-].[Cl-].[Co+2] [CoCl2]
HIF-1α level (HIF-1α): increases | reductive LDH activity (HIF-1α): increased

IC50 (M14 melanoma cells): > 12.5 µM
SMILES: CN(NC(=O)CC(=O)NN(C)C(=S)c1ccccc1)C(=S)c1ccccc1 [elesclomol, N-malonyl-bis(N′-methyl-N′-thiobenzoylhydrazide)]
survival endpoint (metastatic melanoma; elevated LDH population): negative impact | median PFS (metastatic melanoma; elevated LDH population, 32% of patients): 1.8 months | PFS HR (metastatic melanoma; elevated LDH population, p=0.549): 1.10 | overall survival (metastatic melanoma; normal LDH population): no impact on overall survival | safety profile (metastatic melanoma; normal LDH population): acceptable safety profile | median PFS (metastatic melanoma; normal LDH population, 68% of patients): 3.6 months | PFS HR (metastatic melanoma; normal LDH population, p=0.027): 0.76 | change in sensitivity to elesclomol under hypoxic conditions (769-P): no change | sensitivity of cells to elesclomol (Caki-2 cells): resistant | sensitivity of cells to elesclomol (Caki-1 cells): sensitive | elesclomol activity upon co-treatment with oxamate (cell viability) (CoCl2-treated M14 cells): remains active | potency of elesclomol, normoxia vs hypoxia [1]: increased potency

Source: patent US8815945B2, “Use of bis [thiohydrazide amide] compounds such as elesclomol for treating cancers” (priority 2010, dated 2014)
